Experimental data published in patent US11434330B2, “Polyrotaxanes bearing mixed cyclodextrin species and uses thereof” (Purdue Research Foundation, priority 2015, dated 2022).

How the values were obtained:
npc1^−/− mice = conditions: subcutaneous injection, 4.0 mg/kg of body weight; cited from earlier work
[1] = within 24 h; cited from earlier work
[2] = tested on: Niemann-Pick C1-deficient (npc1−/−) fibroblasts; assay: Cholesterol mobilization (filipin staining) in npc1−/− fibroblasts; assay type: cell-based; conditions: 6 h after treatment, total β-CD concentration 25 μM
Method: PR carrying an increasing percentage of SBE-β-CD were administered to Niemann-Pick C1-deficient (npc1−/−) fibroblasts to examine their ability to mobilize cholesterol from sites of aberrant accumulation. Each PR family member, generated with a 0%, 30%, 50%, 60%, or 100% SBE-β-CD feed ratio, was administered at a total β-CD concentration of 25 μM and compared to administration of 25 μM SBE-β-CD or HP-β-CD monomers as controls. Comparisons were made at equivalent β-CD concentrations in these experiments, such that each PR construct carrying 10 copies of β-CD was administered at a 10-fold lower molar concentration than for the β-CD monomer controls, so that any apparent differences in cholesterol mobilization could be attributed to the PR agent (a type of β-CD prodrug) rather than the total drug concentration added to the cells.
HP-β-CD and SBE-β-CD monomers decreased the average filipin staining in npc1−/− fibroblasts to approximately 75% of the untreated control levels after 6 h. PR comprised of 100% HP-β-CD and 100% SBE-β-CD performed equivalently, each decreasing filipin staining to ˜78% of control. PRs carrying 30:70 SBE-β-CD:HP-β-CD ratio decreased fluorescence to ˜65% of the untreated group.

[3] = room temperature, in water; cited from earlier work
[4] = In vivo MRI contrast enhancement in Balb/C mice; conditions: i.v., 3D T1-weighted MRI
Method: In Vivo MRI Contrast Enhancement of Gd^3+—HP-β-CD/SBE-β-CD-PRs. To investigate the MR contrast enhancement and the circulation fate in vivo of the polyrotaxanes, 3D T1-weighted MR images of Balb/C mice after intra-venous injection were acquired with 7 T Bruker small animal scanner before injection and 10, 20, 35, 50, and 60 min post injection. The tissue contrast enhancement of the compounds has different fates dependent on the threading efficiency, molecular weight, size and surface charge of each contrast agent. […] As expected, DOTAREM® was completely eliminated within 20 min, a typical trend commonly observed for small contrast agents.
To quantify the contrast enhancements, the contrast signal-to-noise ratio (CNR) was calculated from regions of interest (ROIs) carefully drawn in the cross-section images of heart, liver, and kidney obtained from the 2D T1-weighted scans. There was insignificant signal enhancement in all these tissues (FIG. 4). […]
In Vivo MR Imaging. […] To quantify the changes in tissues signal intensity, regions of interest (ROIs) were drawn in images of different organs obtained from the 2D T1-weighted scans and ParaVision software was used to evaluate the mean intensities. The contrast-to-noise ratio (CNR) was calculated for the tissues using the following equation: […]

J774 macrophage cells = assay: Cellular uptake by MR relaxation of lysed cells; assay type: cell-based; conditions: 0.1 mM Gd, 12 h at 37° C., serum free media, 7 T
Method: Cellular Uptake Studies. Since macromolecular constructs such as polyrotaxanes can trigger the innate immune system (monocytes, macrophages, dendritic cells) in vivo, their uptake of the polyrotaxane contrast was evaluated by macrophages using the MR imaging modality. In addition, one can take advantage of the biological properties of these materials to image macrophages in human diseases including cancer, atherosclerosis, myocardial infarction, diabetes and other conditions. Macrophages are known to play an important role in host system defense leading to the detrimental fate of most nanomaterials. […] Based on these reports, cellular uptake in J774 macrophages of the polyrotaxane contrast agents was assessed. […] T1 and T2 values from the lysed cells contained in 300 μL eppendorf tubes were measured using an inversion recovery sequence at 7 T and the inverse of spin-lattice (1/T1) and spin-spin (1/T2) relaxation times were evaluated. […]
Cellular Uptake Studies. […] These cells were then collected and analyzed using reverse spin echo scanning on Bruker 7 T Biospect small animal scanner (Bindley Bioscience Center, West Lafayette, Ind.). The relaxations T1 and T2 values were collected from samples images recorded from the cells contained in 300 μL plastic containers using the scanning conditions similarly to those employed for In vitro imaging of polyrotaxane solutions.

[5] = Fixed-field relaxivity measurement at 7 T; assay type: physicochemical; conditions: 7 T Bruker BioSpec; 23° C.; 0.05 to 1.0 mM Gd in water
Method: A fixed field measurement of relaxivity was also performed on aqueous solutions of the polyrotaxane contrast agents in the range of 0.05 to 1.0 mM using a 7 T ([…]) Bruker BioSpec scanner at 23° C. The relaxivity r1 and r2 were determined by plotting the inverse longitudinal (1/T1) and transversal (1/T2) relaxation times, respectively, as a function of Gd concentrations.
Relaxivity Measurements. The longitudinal and transversal relaxation rate of the contrast agents and J774 macrophage cells were measured using a 7 T Bruker BioSpec scanner (Bindley Bioscience Center, West Lafayette, Ind.) 47/30 equipped with a Bruker Biospin MRI GmbH volume coil, 86 mm ID, operating at 300 MHz at 23° C. (RES 300 1 H 112/086 QNS TO AD). […] T1 and T2 values were measured using inversion recovery sequence and multi-slice-multi-echo (MSME) sequence respectively. […] The parameters used are as followed. r1: Repetition times, TE=50.72, 100, 350, 750, 1250, 2500, 3500, and 5000 ms, echo time, TE=22.22 ms, FOV=10×10 mm^2, matrix=128×128, slice thickness=1.0 mm, acquisition number=1. r2: TR=2000 ms, TE=15, 30, 45, 60, 75, 90, 105 ms, FOV=20×20 mm^2, matrix=128×128, slice thickness=1 mm, acquisition number=1. r1 and r2 values were determined by as the slopes of the lines for the plot of 1/T1 and 1/T2 against Gd concentrations, respectively, using the same ROI.

| Compound | effect on survival, hepatopathology, neuropathology (npc1^−/− mice) | fraction cleared from the bloodstream [1] | filipin staining, % of untreated control [2] | water solubility [3] | time to complete elimination [4] | cellular uptake (1/T1, 1/T2 of lysed cells) (J774 macrophage cells) | r1 (mM^−1s^−1) (1/T1) [5] |
| --- | --- | --- | --- | --- | --- | --- | --- |
| 2-Hydroxypropyl-β-cyclodextrin [HP-β-CD] | improvement in their survival, hepatopathology, and neuropathology | > 90% | approximately 75% | 0.65 g/mL | – | – | – |
| 4-sulfobutylether-β-cyclodextrin [SBE-β-CD] | – | – | approximately 75% | – | – | – | – |
| CNC[C@H](O)[C@@H](O)[C@H](O)[C@H](O)CO.O=C([O-])CN1CCN(CC(=O)[O-])CCN(CC(=O)O)CCN(CC(=O)[O-])CC1.[Gd+3] [DOTAREM] | – | – | – | – | ≤ 20 min | did not show any endocytosis | 3.8 mM⁻¹ s⁻¹ |
